Measurements reported in PubChem BioAssay AID248 (DTP/NCI, 2004).
“And” between values parts separate entries of the source, which are not always exact repeats. Equal values may be shown once. Inconclusive results and toxic doses are left out.

System: L1210 leukemia ip in BDF1 mice, survival T/C
Assay: NCI In Vivo Anticancer Drug Screen. Data for tumor model L1210 Leukemia (intraperitoneal) in B6D2F1 (BDF1) mice
Conditions: endpoint: mean survival time, higher = longer survival
How it was run: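 Tumor was transplanted into mice, which were then dosed with test compound or vehicle alone. Survival was recorded for each group, and the treated figure was expressed relative to the control figure.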

[1] = dose: 200.0 mg/kg/injection, schedule: Q01DX001 (ip), vehicle: Klucel (hydroxypropylcellulose) (HPC)
[2] = dose: 400.0 mg/kg/injection, schedule: Q01DX001 (ip), vehicle: Klucel (hydroxypropylcellulose) (HPC)
[3] = dose: 100.0 mg/kg/injection, schedule: Q04DX003 (ip), vehicle: saline with Tween-80
[4] = dose: 200.0 mg/kg/injection, schedule: Q04DX003 (ip), vehicle: saline with Tween-80
[5] = dose: 50.0 mg/kg/injection, schedule: Q01DX001 (ip), vehicle: saline
[6] = dose: 100.0 mg/kg/injection, schedule: Q01DX001 (ip), vehicle: saline
[7] = dose: 200.0 mg/kg/injection, schedule: Q01DX001 (ip), vehicle: saline
[8] = dose: 100.0 mg/kg/injection, schedule: Q01DX009 (ip), vehicle: Klucel (hydroxypropylcellulose) (HPC)
[9] = dose: 200.0 mg/kg/injection, schedule: Q01DX009 (ip), vehicle: Klucel (hydroxypropylcellulose) (HPC)
[10] = dose: 400.0 mg/kg/injection, schedule: Q01DX009 (ip), vehicle: Klucel (hydroxypropylcellulose) (HPC)
[11] = dose: 400.0 mg/kg/injection, schedule: Q04DX003 (ip), vehicle: saline with Tween-80
[12] = dose: 100.0 mg/kg/injection, schedule: Q04DX002 (ip), vehicle: saline with Tween-80
[13] = dose: 200.0 mg/kg/injection, schedule: Q04DX002 (ip), vehicle: saline with Tween-80
[14] = dose: 400.0 mg/kg/injection, schedule: Q04DX002 (ip), vehicle: saline with Tween-80
[15] = dose: 100.0 mg/kg/injection, schedule: Q01DX009 (ip), vehicle: saline with Tween-80
[16] = dose: 200.0 mg/kg/injection, schedule: Q01DX009 (ip), vehicle: saline with Tween-80
[17] = dose: 100.0 mg/kg/injection, schedule: Q04DX003 (ip), vehicle: Klucel (hydroxypropylcellulose) (HPC)
[18] = dose: 200.0 mg/kg/injection, schedule: Q04DX003 (ip), vehicle: Klucel (hydroxypropylcellulose) (HPC)
[19] = dose: 400.0 mg/kg/injection, schedule: Q04DX003 (ip), vehicle: Klucel (hydroxypropylcellulose) (HPC)
[20] = dose: 400.0 mg/kg/injection, schedule: Q01DX009 (ip), vehicle: saline with Tween-80

CCN(CC)CCN1c2cc(C)ccc2Sc2ccc3ccccc3c21 was tested, and the T/C (dose: 100.0 mg/kg/injection, schedule: Q01DX001 (sc), vehicle: olive oil, sesame oil, peanut oil) was 101 % of control, the T/C (dose: 100.0 mg/kg/injection, schedule: Q01DX009 (sc), vehicle: olive oil, sesame oil, peanut oil) was 101 % of control and the T/C (dose: 100.0 mg/kg/injection, schedule: Q04DX003 (sc), vehicle: olive oil, sesame oil, peanut oil) was 110 % of control. The T/C (dose: 200.0 mg/kg/injection, schedule: Q01DX001 (sc), vehicle: olive oil, sesame oil, peanut oil) was 100 % of control, the T/C (dose: 200.0 mg/kg/injection, schedule: Q01DX009 (sc), vehicle: olive oil, sesame oil, peanut oil) was 118 % of control and the T/C (dose: 200.0 mg/kg/injection, schedule: Q04DX003 (sc), vehicle: olive oil, sesame oil, peanut oil) was 110 % of control. The T/C (dose: 400.0 mg/kg/injection, schedule: Q01DX001 (sc), vehicle: olive oil, sesame oil, peanut oil) was 101 % of control and the T/C (dose: 400.0 mg/kg/injection, schedule: Q04DX003 (sc), vehicle: olive oil, sesame oil, peanut oil) was 113 % of control.

With Oc1ccccc1CNc1nn[nH]n1 the T/C (dose: 100.0 mg/kg/injection, schedule: Q01DX001 (ip), vehicle: Klucel (hydroxypropylcellulose) (HPC)) was 101 % of control, the T/C [1] was 108 % of control and the T/C [2] was 103 % of control.

COc1cccc2ccccc12 was tested, and the T/C [3] was 96 % of control and the T/C [4] was 94 % of control.

In the case of O=C(O)CC1NCc2cc3ccccc3nc21 (configuration not stated), the T/C (dose: 10.0 mg/kg/injection, schedule: Q04DX003 (ip), vehicle: alcohol) is reported as 94 % of control, the T/C (dose: 20.0 mg/kg/injection, schedule: Q04DX003 (ip), vehicle: alcohol) is reported as 99 % of control and the T/C (dose: 40.0 mg/kg/injection, schedule: Q04DX003 (ip), vehicle: alcohol) is reported as 105 % of control. The T/C (dose: 80.0 mg/kg/injection, schedule: Q04DX003 (ip), vehicle: alcohol) was 99 % of control and the T/C (dose: 160.0 mg/kg/injection, schedule: Q04DX003 (ip), vehicle: alcohol) was 97 % of control.

In the case of FC(F)(F)c1ccc(-c2ccc(OCCN3CCCC3)cc2)cc1, the T/C (dose: 4.68 mg/kg/injection, schedule: Q01DX009 (ip), vehicle: saline) is reported as 97 % of control, the T/C (dose: 9.37 mg/kg/injection, schedule: Q01DX009 (ip), vehicle: saline) is reported as 92 % of control and the T/C (dose: 18.75 mg/kg/injection, schedule: Q01DX009 (ip), vehicle: saline) is reported as 94 % of control and 89 % of control. For the same compound, the T/C (dose: 37.5 mg/kg/injection, schedule: Q01DX009 (ip), vehicle: saline) was 90 % of control, the T/C (dose: 37.5 mg/kg/injection, schedule: Q04DX003 (ip), vehicle: saline) was 93 % of control and the T/C (dose: 75.0 mg/kg/injection, schedule: Q04DX003 (ip), vehicle: saline) was 102 % of control. For the same compound, the T/C (dose: 150.0 mg/kg/injection, schedule: Q04DX003 (ip), vehicle: saline) was 87 % of control.

For CN(C)c1ccc(C(N)C(=O)O)cc1 (configuration not stated), the T/C [5] was 101 % of control, the T/C [6] was 98 % of control and the T/C [7] was 95 % of control.

In the case of O=C1OC(=O)C(=C(c2ccccc2)c2ccccc2)C1=C(c1ccccc1)c1ccccc1, the T/C [8] is reported as 101 % of control, the T/C [9] is reported as 92 % of control and the T/C [10] is reported as 92 % of control.

With CCCCN(CCCC)CC(O)c1cc(-c2cccc(I)c2)nc2c(Cl)cc(Cl)cc12 (configuration not stated) the T/C [3] was 90 % of control, the T/C [4] was 86 % of control and the T/C [11] was 98 % of control.

For CN(N=O)C(=O)NCCCCCNC(=O)N(C)N=O, the T/C (dose: 6.25 mg/kg/injection, schedule: Q01DX Z (ip), vehicle: carboxymethylcellulose (CMC)) was 102 % of control, the T/C (dose: 12.5 mg/kg/injection, schedule: Q01DX Z (ip), vehicle: carboxymethylcellulose (CMC)) was 100 % of control and the T/C (dose: 25.0 mg/kg/injection, schedule: Q01DX Z (ip), vehicle: carboxymethylcellulose (CMC)) was 106 % of control. The T/C (dose: 50.0 mg/kg/injection, schedule: Q01DX Z (ip), vehicle: carboxymethylcellulose (CMC)) was 108 % of control, the T/C (dose: 150.0 mg/kg/injection, schedule: Q01DX Z (ip), vehicle: carboxymethylcellulose (CMC)) was 191 % of control and the T/C (dose: 175.0 mg/kg/injection, schedule: Q01DX Z (ip), vehicle: carboxymethylcellulose (CMC)) was 166 % of control. The T/C (dose: 200.0 mg/kg/injection, schedule: Q01DX Z (ip), vehicle: carboxymethylcellulose (CMC)) was 158 % of control and the T/C (dose: 210.0 mg/kg/injection, schedule: Q01DX001 (ip), vehicle: carboxymethylcellulose (CMC)) was 117 % of control.

CC(CO)[CH2][Sn]([c]1ccccc1)([c]1ccccc1)[c]1ccccc1 (configuration not stated) was tested, and the T/C [12] was 98 % of control and 101 % of control, the T/C [13] was 98 % of control and the T/C [14] was 95 % of control and 98 % of control.

For CN=C1c2ccccc2C2(c3ccccc3)C1N2C (configuration not stated), the T/C [15] was 95 % of control, the T/C (dose: 100.0 mg/kg/injection, schedule: Q04DX003 (ip), vehicle: saline sonified) was 121 % of control and the T/C [16] was 94 % of control. For the same compound, the T/C (dose: 200.0 mg/kg/injection, schedule: Q04DX003 (ip), vehicle: saline sonified) was 108 % of control and the T/C (dose: 400.0 mg/kg/injection, schedule: Q04DX003 (ip), vehicle: saline sonified) was 101 % of control.

With O=Cc1cn[nH]c1-c1ccccc1 the T/C [8] was 97 % of control, the T/C [17] was 95 % of control and the T/C [9] was 97 % of control. For the same compound, the T/C [18] was 98 % of control, the T/C [10] was 106 % of control and the T/C [19] was 98 % of control.

For CCCCn1c(C)nc2c(N)cc(C(F)(F)F)cc21, the T/C [1] was 100 % of control and the T/C [2] was 111 % of control.

In the case of CCCCCCCCCCCCCCCCC(=O)O.[Pb], the T/C (dose: 75.0 mg/kg/injection, schedule: Q01DX001 (ip), vehicle: other) is reported as 94 % of control, the T/C (dose: 150.0 mg/kg/injection, schedule: Q01DX001 (ip), vehicle: other) is reported as 92 % of control and the T/C (dose: 300.0 mg/kg/injection, schedule: Q01DX001 (ip), vehicle: other) is reported as 92 % of control.

For CC(=O)Nc1cccc2c1C(=O)OC2=O, the T/C [15] was 105 % of control, the T/C [3] was 102 % of control and the T/C [16] was 89 % of control. For the same compound, the T/C [4] was 99 % of control, the T/C [20] was 93 % of control and the T/C [11] was 94 % of control.

OC(Cc1cnc2ccccc2n1)C(Cl)(Cl)Cl (configuration not stated) was tested, and the T/C [15] was 102 % of control, the T/C [17] was 90 % of control and the T/C [16] was 97 % of control. For the same compound, the T/C [18] was 95 % of control, the T/C [20] was 94 % of control and the T/C [19] was 108 % of control.

For CC(=O)Nc1ccn(C2OC(CO)C(O)C2O)c(=O)n1 (configuration not stated), the T/C (dose: 200.0 mg/kg/injection, schedule: Q01DX009 (ip), vehicle: saline) was 166 % of control and the T/C (dose: 400.0 mg/kg/injection, schedule: Q01DX009 (ip), vehicle: saline) was 163 % of control.

For CC1CCCC[N-]1.CC1CCCC[N-]1.[Cl][Pt+2][Cl] (configuration not stated), the T/C [8] was 97 % of control, the T/C [17] was 98 % of control and the T/C [9] was 102 % of control. For the same compound, the T/C [18] was 96 % of control and the T/C [19] was 102 % of control.

CCN1CCC(CNc2cc(C)nc(/N=C(\N)Nc3cc(Cl)cc(Cl)c3)n2)C1 (configuration not stated) was tested, and the T/C (dose: 12.5 mg/kg/injection, schedule: Q04DX003 (ip), vehicle: Klucel (hydroxypropylcellulose) (HPC)) was 102 % of control, the T/C (dose: 25.0 mg/kg/injection, schedule: Q04DX003 (ip), vehicle: Klucel (hydroxypropylcellulose) (HPC)) was 105 % of control and the T/C (dose: 50.0 mg/kg/injection, schedule: Q04DX003 (ip), vehicle: Klucel (hydroxypropylcellulose) (HPC)) was 105 % of control.

With COc1ccc(C)cc1NC(=S)NC(=O)/C=C/c1ccccc1 the T/C (dose: 100.0 mg/kg/injection, schedule: Q01DX001 (ip), vehicle: saline with Tween-80) was 90 % of control, the T/C [15] was 93 % of control and 100 % of control and the T/C [12] was 93 % of control and 94 % of control. The T/C [3] was 91 % of control, the T/C (dose: 200.0 mg/kg/injection, schedule: Q01DX001 (ip), vehicle: saline with Tween-80) was 91 % of control and the T/C [16] was 93 % of control and 88 % of control. For the same compound, the T/C [13] was 94 % of control and 90 % of control, the T/C [4] was 93 % of control and the T/C (dose: 400.0 mg/kg/injection, schedule: Q01DX001 (ip), vehicle: saline with Tween-80) was 90 % of control. The T/C [20] was 100 % of control and 103 % of control, the T/C [14] was 97 % of control and 89 % of control and the T/C [11] was 91 % of control.

In the case of O=C(Cc1ccccc1)NCc1ccccc1, the T/C (dose: 25.0 mg/kg/injection, schedule: Q01DX001 (ip), vehicle: saline) is reported as 97 % of control, the T/C [5] is reported as 101 % of control and the T/C [6] is reported as 104 % of control. For the same compound, the T/C [7] was 104 % of control.

In the case of CCOC(=O)c1cc(Cl)cc(C(=O)OCC)n1, the T/C [15] is reported as 111 % of control, the T/C [16] is reported as 107 % of control and the T/C [20] is reported as 102 % of control.
